In patent US8937181B2, “Benzenesulfonamide compounds and the use thereof” (Purdue Pharma L.P., priority 2006, dated 2015):

Tests used:
[1] = molecular target: T1, N-type calcium channel (NTCC) (Homo sapiens, UniProt Q00975); assay: FLIPR calcium mobilization assay for N-type calcium channel; type: cell-based; conditions: calcium mobilization in vitro assay; differentiated IMR32 cells, 5 μM nitrendipine, 90 mM KCl
T1 construct: host or cells: IMR32 cells differentiated with dibutyryl cAMP and bromodeoxyuridine
Method: Unless noted otherwise, cell culture reagents were purchased from Mediatech of Herndon, Md. IMR32 cells (American Type Culture Collection, ATCC, Manassas, Va.) were routinely cultured in growth medium consisting of minimum essential medium containing 10% fetal bovine serum (FBS, Hyclone, Logan, Utah), 100 U/mL penicillin, 100 μg/mL streptomycin, 2 mM L-glutamine, 1 mM sodium pyruvate, and 1×MEM non-essential amino acids. 80-90% confluent flasks of cells were differentiated using the following differentiation medium: Growth medium plus 1 mM dibutyryl cyclic AMP (Sigma, St. Louis, Mo.), and 2.5 μM bromodeoxyuridine (Sigma). Cells were differentiated for 8 days by replacing differentiation medium every 2-3 days.
FLIPR Calcium Mobilization Assay for N-type Calcium Channel.
One day prior to performing this assay, differentiated IMR32 cells were treated with 1× CellStripper, and seeded on poly-D-lysine-coated 96-well clear-bottom black plates (Becton Dickinson, Franklin Lakes, N.J.) at 200,000 cells/well. On the day of the assay, the cell plates were washed with IMR32 buffer (127 mM NaCl, 1 mM KCl, 2 mM MgCl2, 700 μM NaH2PO4, 5 mM CaCl2, 5 mM NaHCO3, 8 mM HEPES, 10 mM glucose, pH7.4), then pre-stimulated with KCl and loaded as follows: 0.05 mL of IMR32 buffer, 0.05 mL of each compound tested diluted in IMR32 buffer containing 20 μM nitrendipine (Sigma), and 0.1 mL KCl dissolved in IMR32 buffer, plus Fluo-4 were added (3 μM final concentration, Molecular Probes, Eugene, Oreg.). Final test compound concentrations ranged from about 846 pM to about 17 μM, final nitrendipine concentration was 5 μM, and final KCl concentration was 90 mM. After 1 hour, the cells were washed twice with 0.05 mL of each compound tested in nitrendipine-containing IMR32 buffer (no KCl or Fluo-4), and then replaced with 0.1 mL of each compound tested in nitrendipine-containing IMR32 buffer. Plates were then transferred to a Fluorimetric Imaging Plate Reader (FLIPR^96, Molecular Devices, Inc., Sunnyvale, Calif.) for assay. The FLIPR measured basal Fluo-4 fluorescence for 315 seconds (i.e., 5 minutes and 15 seconds), then added 0.1 mL KCl agonist dissolved in IMR32 buffer and measured fluorescence for another 45 seconds. Final test compound concentrations on the cells after FLIPR read ranged from about 846 pM to about 17 μM, final nitrendipine concentration was 5 μM, and final KCl concentration was 90 mM. Data were collected over the entire time course and analyzed using Excel, Graph Pad Prism (version 3.02, Graph Pad, San Diego, Calif.), or an in-house non-linear regression analysis software.

[2] = molecular target: T2, L-type calcium channel (LTCC) (Rattus norvegicus, UniProt P22002); assay: FLIPR calcium mobilization assay for L-type calcium channel; type: cell-based; conditions: calcium mobilization in vitro assay; HEK293 cells stably expressing recombinant rat LTCC subunits (α1c, α2δ, β1), 90 mM KCl
T2 construct: The 6.5 kb cDNA encoding the L-type calcium channel α1c subunit was cloned by PCR amplification from rat heart cDNA; expressed in transfected cells
Method: Recombinant human embryonal kidney cells (HEK293, ATCC) stably transfected with either N-type calcium channel (NTCC) subunits (α1b, α2δ, and β3) or L-type calcium channel (LTCC) subunits (α1c, α2δ, and β1) were routinely cultured in growth medium consisting of Dulbecco's Modified Eagles Medium containing 10% FBS, 100 U/mL penicillin, 100 μg/mL streptomycin, 4 mM L-glutamine, 500 μg/mL geneticin (G418), 20 μg/mL Blasticidin S (InVivogen, San Diego, Calif.) and 500 μg/mL zeocin (InVivogen).
FLIPR Calcium Mobilization Assay for L-type Calcium Channel.
One day prior to performing this assay, HEK293 cells stably expressing recombinant rat L-type calcium channel (LTCC) subunits (α1c, α2δ, and β1) were trypsinized, then seeded on poly-D-lysine-coated 96-well clear-bottom black plates (Becton Dickinson, Franklin Lakes, N.J.) at 75,000 cells/well. On the day of the assay, the plates were washed with LTCC wash buffer (127 mM NaCl, 2 mM MgCl2, 700 μM NaH2PO4, 5 mM CaCl2, 5 mM NaHCO3, 8 mM HEPES, 10 mM glucose, pH7.4), then loaded with 0.1 mL of LTCC wash buffer containing Fluo-4 (3 μM final concentration, Molecular Probes, Eugene, Oreg.). After 1 hour, the cells were washed with 0.1 mL LTCC wash buffer and resuspended in 0.05 mL LTCC assay buffer (same composition as LTCC wash buffer). Plates were then transferred to a FLIPR^96 for assay. The FLIPR measured basal Fluo-4 fluorescence for 15 seconds, then added 0.05 mL of each compound tested diluted in LTCC assay buffer at final concentrations ranging from about 846 pM to about 17 μM. Fluo-4 fluorescence was then measured for 5 minutes. 0.1 mL KCl agonist dissolved in LTCC assay buffer was then added to the cells to produce a final concentration of 90 mM KCl, and fluorescence was measured for another 45 seconds. Data were collected over the entire time course and analyzed using Excel, Graph Pad Prism, or an in-house regression analysis software.

T1 sequence (Q00975 whole entry): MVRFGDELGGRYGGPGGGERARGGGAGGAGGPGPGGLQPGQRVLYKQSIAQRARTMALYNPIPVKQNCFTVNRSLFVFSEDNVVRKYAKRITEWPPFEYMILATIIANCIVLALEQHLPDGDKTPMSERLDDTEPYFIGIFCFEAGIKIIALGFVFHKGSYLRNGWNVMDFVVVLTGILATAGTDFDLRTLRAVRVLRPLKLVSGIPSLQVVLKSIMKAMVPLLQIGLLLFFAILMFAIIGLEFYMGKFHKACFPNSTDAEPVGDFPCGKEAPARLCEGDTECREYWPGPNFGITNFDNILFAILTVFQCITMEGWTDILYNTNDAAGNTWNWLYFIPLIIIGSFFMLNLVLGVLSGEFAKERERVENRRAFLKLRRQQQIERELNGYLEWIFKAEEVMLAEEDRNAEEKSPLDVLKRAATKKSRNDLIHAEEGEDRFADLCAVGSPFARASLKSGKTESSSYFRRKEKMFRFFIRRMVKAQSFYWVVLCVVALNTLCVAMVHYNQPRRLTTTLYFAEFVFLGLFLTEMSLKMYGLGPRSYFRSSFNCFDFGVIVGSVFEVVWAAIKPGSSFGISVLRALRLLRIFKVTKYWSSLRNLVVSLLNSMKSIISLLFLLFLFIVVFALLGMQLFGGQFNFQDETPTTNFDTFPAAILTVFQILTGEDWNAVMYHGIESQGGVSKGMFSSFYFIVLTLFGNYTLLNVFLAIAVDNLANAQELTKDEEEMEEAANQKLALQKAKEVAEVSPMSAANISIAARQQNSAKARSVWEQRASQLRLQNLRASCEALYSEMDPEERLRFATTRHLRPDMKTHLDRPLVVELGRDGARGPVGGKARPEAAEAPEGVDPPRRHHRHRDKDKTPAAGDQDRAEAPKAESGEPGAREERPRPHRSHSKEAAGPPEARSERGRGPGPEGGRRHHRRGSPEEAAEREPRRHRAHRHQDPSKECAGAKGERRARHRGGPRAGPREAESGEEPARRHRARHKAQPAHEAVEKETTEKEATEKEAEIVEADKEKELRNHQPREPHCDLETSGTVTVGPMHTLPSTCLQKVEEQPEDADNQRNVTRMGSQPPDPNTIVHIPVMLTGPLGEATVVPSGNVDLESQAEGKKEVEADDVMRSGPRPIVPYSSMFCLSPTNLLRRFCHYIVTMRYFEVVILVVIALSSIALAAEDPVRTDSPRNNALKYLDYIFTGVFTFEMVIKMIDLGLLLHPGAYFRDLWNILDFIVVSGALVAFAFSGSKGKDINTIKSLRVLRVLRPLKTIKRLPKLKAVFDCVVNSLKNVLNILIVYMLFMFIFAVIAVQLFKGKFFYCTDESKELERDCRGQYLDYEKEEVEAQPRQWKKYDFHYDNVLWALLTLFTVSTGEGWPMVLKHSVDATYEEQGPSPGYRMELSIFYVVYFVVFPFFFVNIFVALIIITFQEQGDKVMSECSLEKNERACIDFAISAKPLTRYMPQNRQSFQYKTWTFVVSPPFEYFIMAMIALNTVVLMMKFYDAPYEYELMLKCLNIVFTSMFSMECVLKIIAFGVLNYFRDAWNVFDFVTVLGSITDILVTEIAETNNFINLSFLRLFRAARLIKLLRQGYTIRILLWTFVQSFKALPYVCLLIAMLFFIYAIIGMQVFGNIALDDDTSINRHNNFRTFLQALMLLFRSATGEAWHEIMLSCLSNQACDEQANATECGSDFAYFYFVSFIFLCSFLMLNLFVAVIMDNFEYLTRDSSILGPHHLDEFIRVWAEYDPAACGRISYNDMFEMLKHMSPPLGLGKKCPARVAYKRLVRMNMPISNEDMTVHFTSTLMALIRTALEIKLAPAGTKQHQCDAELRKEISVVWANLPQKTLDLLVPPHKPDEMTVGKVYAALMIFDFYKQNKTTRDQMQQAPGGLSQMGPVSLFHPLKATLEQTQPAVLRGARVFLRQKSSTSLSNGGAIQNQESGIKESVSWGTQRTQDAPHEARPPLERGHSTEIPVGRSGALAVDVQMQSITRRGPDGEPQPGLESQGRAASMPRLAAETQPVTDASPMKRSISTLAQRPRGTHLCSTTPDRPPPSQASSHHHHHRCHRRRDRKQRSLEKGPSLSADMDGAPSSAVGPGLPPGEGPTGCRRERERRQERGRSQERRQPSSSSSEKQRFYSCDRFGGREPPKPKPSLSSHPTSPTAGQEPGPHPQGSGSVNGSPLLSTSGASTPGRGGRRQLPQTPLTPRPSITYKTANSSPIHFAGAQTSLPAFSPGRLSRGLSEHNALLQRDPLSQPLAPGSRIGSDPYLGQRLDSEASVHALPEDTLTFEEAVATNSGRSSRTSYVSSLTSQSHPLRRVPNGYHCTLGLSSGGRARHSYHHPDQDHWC
T1 sequence (P54289 25-956 partner limits assumed): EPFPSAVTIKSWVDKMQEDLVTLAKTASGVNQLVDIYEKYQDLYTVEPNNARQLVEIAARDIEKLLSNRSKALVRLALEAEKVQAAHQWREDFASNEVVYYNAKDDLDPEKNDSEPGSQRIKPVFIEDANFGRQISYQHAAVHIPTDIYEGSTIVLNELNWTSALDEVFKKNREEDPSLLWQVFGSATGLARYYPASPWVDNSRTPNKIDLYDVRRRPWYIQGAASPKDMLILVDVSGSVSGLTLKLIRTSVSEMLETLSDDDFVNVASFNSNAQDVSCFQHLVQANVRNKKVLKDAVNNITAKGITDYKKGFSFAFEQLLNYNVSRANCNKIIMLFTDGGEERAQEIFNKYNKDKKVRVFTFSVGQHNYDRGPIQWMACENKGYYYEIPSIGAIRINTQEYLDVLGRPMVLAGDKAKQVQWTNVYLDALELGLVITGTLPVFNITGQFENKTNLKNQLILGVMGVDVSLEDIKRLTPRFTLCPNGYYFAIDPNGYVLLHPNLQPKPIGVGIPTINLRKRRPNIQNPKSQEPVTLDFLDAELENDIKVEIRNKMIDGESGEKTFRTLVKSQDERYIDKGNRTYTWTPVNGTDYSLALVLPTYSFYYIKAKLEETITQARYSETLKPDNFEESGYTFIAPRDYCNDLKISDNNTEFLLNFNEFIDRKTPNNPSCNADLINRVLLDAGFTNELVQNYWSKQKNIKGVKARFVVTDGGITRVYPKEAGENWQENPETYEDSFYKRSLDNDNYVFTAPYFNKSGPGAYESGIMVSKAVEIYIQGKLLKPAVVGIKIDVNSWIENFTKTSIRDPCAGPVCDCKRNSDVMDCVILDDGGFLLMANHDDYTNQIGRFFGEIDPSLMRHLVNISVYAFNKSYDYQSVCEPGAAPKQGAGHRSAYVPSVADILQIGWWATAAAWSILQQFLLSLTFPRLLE
T1 sequence (P54289 957-1103 partner limits assumed): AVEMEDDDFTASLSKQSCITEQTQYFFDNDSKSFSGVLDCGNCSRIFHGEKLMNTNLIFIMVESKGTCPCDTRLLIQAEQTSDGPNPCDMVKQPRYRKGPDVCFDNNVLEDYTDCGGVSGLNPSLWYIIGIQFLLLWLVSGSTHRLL
T1 sequence (P54284 whole entry partner): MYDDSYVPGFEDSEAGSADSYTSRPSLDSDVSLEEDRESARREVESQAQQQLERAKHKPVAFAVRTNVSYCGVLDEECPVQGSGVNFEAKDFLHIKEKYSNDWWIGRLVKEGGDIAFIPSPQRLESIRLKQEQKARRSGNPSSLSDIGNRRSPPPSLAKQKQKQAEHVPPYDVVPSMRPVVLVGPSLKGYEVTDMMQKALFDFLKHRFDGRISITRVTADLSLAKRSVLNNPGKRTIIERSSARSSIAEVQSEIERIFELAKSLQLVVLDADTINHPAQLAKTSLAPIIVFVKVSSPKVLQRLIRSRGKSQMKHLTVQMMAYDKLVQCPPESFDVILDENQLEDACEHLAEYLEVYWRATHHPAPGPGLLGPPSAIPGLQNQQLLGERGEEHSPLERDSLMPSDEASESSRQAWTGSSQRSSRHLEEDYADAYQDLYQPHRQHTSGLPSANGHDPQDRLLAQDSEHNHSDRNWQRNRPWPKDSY

SMILES	IC50 [1] [µM]	IC50 [2] [µM]
N[C@@H]1CCCC[C@@H]1C(=O)N1CCC(N(C2CC2)S(=O)(=O)c2cccc(C(F)(F)F)c2)CC1 (racemic) [Compound 4, rac-N-[1-((1S,2R)-2-Amino-cyclohexanecarbonyl)-piperidin-4-yl]-N-cyclopropyl-3-trifluoromethyl-benzenesulfonamide]	0.57	> 20
N[C@@H]1CCC[C@@H]1C(=O)N1CCC(N(C2CC2)S(=O)(=O)c2cccc(C(F)(F)F)c2)CC1 (racemic) [Compound 5, rac-N-[1-((1S,2R)-2-Amino-cyclopentanecarbonyl)-piperidin-4-yl]-N-cyclopropyl-3-trifluoromethyl-benzenesulfonamide]	0.29	> 20
CC(C)N(C1CCN(C(=O)[C@H]2CCC[C@H]2N)CC1)S(=O)(=O)c1cccc(C(F)(F)F)c1 (racemic) [rac-N-[1-((1S,2R)-2-amino-cyclopentanecarbonyl)-piperidin-4-yl}-N-isopropyl-3-trifluoromethylbenzenesulfonamide]	3.69	–
O=C(CCN1CCC(O)CC1)N1CCC(N(C2CC2)S(=O)(=O)c2cccc(C(F)(F)F)c2)CC1 [Compound 2, N-Cyclopropyl-N-{1-[3-(4-hydroxy-piperidin-1-yl)-propionyl]-piperidin-4-yl}-3-trifluoromethyl-benzenesulfonamide]	2.47	–
O=C(CCN[C@H]1CC[C@H](O)CC1)N1CCC(N(C2CC2)S(=O)(=O)c2cccc(C(F)(F)F)c2)CC1 [Compound 3, N-Cyclopropyl-N-{1-[3-(4-hydroxy-cyclohexylamino)-propionyl]-piperidin-4-yl}-3-trifluoromethyl-benzenesulfonamide]	3.04	–
O=C(c1ccc(=O)[nH]c1)N1CCC(N(C2CC2)S(=O)(=O)c2cccc(C(F)(F)F)c2)CC1 [Compound 6, N-Cyclopropyl-N-[1-(6-oxo-1,6-dihydro-pyridine-3-carbonyl)-piperidin-4-yl]-3-trifluoromethyl-benzenesulfonamide]	8.58	–
O=C(c1ccccn1)N1CCC(N(C2CC2)S(=O)(=O)c2cccc(C(F)(F)F)c2)CC1 [Compound 7, N-Cyclopropyl-N-[1-(pyridine-2-carbonyl)-piperidin-4-yl]-3-trifluoromethyl-benzenesulfonamide]	5.53	–
O=C(c1cccnc1)N1CCC(N(C2CC2)S(=O)(=O)c2cccc(C(F)(F)F)c2)CC1 [Compound 8, N-Cyclopropyl-N-[1-(pyridine-3-carbonyl)-piperidin-4-yl]-3-trifluoromethyl-benzenesulfonamide]	7.25	–
O=C(c1ccncc1)N1CCC(N(C2CC2)S(=O)(=O)c2cccc(C(F)(F)F)c2)CC1 [Compound 9, N-Cyclopropyl-N-[1-(pyridine-4-carbonyl)-piperidin-4-yl]-3-trifluoromethyl-benzenesulfonamide]	8.68	–
O=C(c1ccccc1[N+](=O)[O-])N1CCC(N(C2CC2)S(=O)(=O)c2cccc(C(F)(F)F)c2)CC1 [Compound 10, N-Cyclopropyl-N-[1-(2-nitro-benzoyl)-piperidin-4-yl]-3-trifluoromethyl-benzenesulfonamide]	0.76	3.06
Nc1ccccc1C(=O)N1CCC(N(C2CC2)S(=O)(=O)c2cccc(C(F)(F)F)c2)CC1 [Compound 11, N-[1-(2-Amino-benzoyl)-piperidin-4-yl]-N-cyclopropyl-3-trifluoromethyl-benzenesulfonamide]	0.68	10 to 20
O=C(c1ccccc1NCCO)N1CCC(N(C2CC2)S(=O)(=O)c2cccc(C(F)(F)F)c2)CC1 [Compound 13, N-Cyclopropyl-N-{1-[2-(2-hydroxy-ethylamino)-benzoyl]-piperidin-4-yl}-3-trifluoromethyl-benzenesulfonamide]	0.33	> 20

Further lines, results first:

IC50 [1] [µM]	IC50 [2] [µM]	SMILES
0.19	10 to 20	CC(C)N(C1CCN(C(=O)CNC2CCCCC2)CC1)S(=O)(=O)c1cccc(C(F)(F)F)c1 [Compound 25a, N-[1-(2-Cyclohexylamino-acetyl)-piperidin-4-yl]-N-isopropyl-3-trifluoromethylbenzenesulfonamide]
3.35	–	CC(C)N(C1CCN(C(=O)CN2CCCC(O)C2)CC1)S(=O)(=O)c1cccc(C(F)(F)F)c1 (stereo not drawn) [Compound 25b, N-{1-[2-(3-Hydroxy-piperidin-1-yl)-acetyl]-piperidin-4-yl}-N-isopropyl-3-trifluoromethylbenzenesulfonamide]
0.28	> 20	O=C(CNC1CCCC1)N1CCC(N(C2CC2)S(=O)(=O)c2cccc(C(F)(F)F)c2)CC1 [Compound 25c, N-[1-(2-Cyclopentylamino-acetyl)-piperidin-4-yl]-N-cyclopropyl-3-trifluoromethylbenzenesulfonamide]
1.14	–	CC(C)N(C1CCN(C(=O)CN2Cc3ccccc3C2)CC1)S(=O)(=O)c1cccc(C(F)(F)F)c1 [Compound 25d, N-[1-(2-1,3-Dihydro-isoindol-2-yl-acetyl)-piperidin-4-yl]-N-isopropyl-3-trifluoromethylbenzenesulfonamide]
0.88	> 20	CC(C)N(C1CCN(C(=O)CN2CCCC(F)(F)C2)CC1)S(=O)(=O)c1cccc(C(F)(F)F)c1 [Compound 25e, N-{1-[2-(3,3-Difluoro-piperidin-1-yl)-acetyl]-piperidin-4-yl}-N-isopropyl-3-trifluoromethylbenzenesulfonamide]
3.98	7.81	CC(C)N(C1CCN(C(=O)CN2CCC(F)(F)C2)CC1)S(=O)(=O)c1cccc(C(F)(F)F)c1 [Compound 25f, N-{1-[2-(3,3-Difluoro-pyrrolidin-1-yl)-acetyl]-piperidin-4-yl}-N-isopropyl-3-trifluoromethylbenzenesulfonamide]
